# Structures can show the parent of a compound that is named as a salt. Where two headings read alike, the source gives them in different places.
# Tests used:
# blood pressure = test: Effect on the blood pressure: hypertensive action, pithed rat; type: in vivo, male Sprague-Dawley rats; conditions: for ED20: Rattus norvegicus, dose based on the base, read-out: ED 20% hypertensive action (dose which increases the blood pressure of the pithed rat by 20%); for R.A. (relative activity), hypertensive action: amezinium = 1.00
# Method: The measurement of the blood pressure in the carotid artery was carried out by means of Statham transducers. The substance was administered in the jugular vein (as an aqueous solution, 1 ml/kg) or intraperitoneally (as a tragacanth suspension, 2 ml/kg). The ED 20% is determined as the dose which increases the blood pressure by 20%.
# [1] = test system: reserpine-induced hypothermia / blood pressure; test: Quotient ED 50% antidepressive action / ED 20% hypertensive action; type: in vivo, mouse / rat; conditions: for Q Increase: Table 2, route of hypertensive test not given; for factor by which the quotient of antidepressive action and hypertensive action is smaller than in the case of amezinium: compounds of Table 1;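 on Q Increase: larger quotient means more selective hypertensive action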
# Excerpt: This is evident from the fact that the quotient defined above differs wtih respect to the comparative compounds. […] This arises, inter alia, from the fact that the hypertensive ED 20 constitutes the denominator of the quotient. It is possible that the unforeseeable selective direction of action is attributable to the special substitution,in accordance with the invention, at the 4-imino group.
# [2] = test system: reserpine-induced hypothermia; test: Antidepressive action: reserpine antagonism, inhibition of reserpine-induced hypothermia of the mouse; type: in vivo, male Swiss mice; conditions: for ED50: Mus musculus, dose based on the base, read-out: ED 50% (dose which inhibits the reserpine-induced hypothermia of the mouse by 50%); for R.A. (relative activity), reserpine antagonism: amezinium = 1.00, oral
# Method: Antidepressants effect dose-dependent inhibition of this hypotherma. The test substances are administered orally 60 minutes before the administration of reserpine.
# The dose which effects 50% inhibition of the reserpine-induced hypothermia is determined, as the ED 50%, from the linear regression between log dose (mg/kg) and relative reduction in hypothermia (Δ%).
# [3] = iv, Table 1, i.v. administration
# [4] = Table 1, oral administration 60 min before reserpine
# [5] = ip, Table 1, i.p. administration
Compound,ED20 (blood pressure; [3]),"R.A. (relative activity), hypertensive action (blood pressure; Table 1, i.v. administration)",Q (quotient ED 50% antidepressive action/ED 20% hypertensive action) ([1]; hypertensive test i.v.),"ED50 [2, 4]","R.A. (relative activity), reserpine antagonism ([2]; Table 1)",ED20 (blood pressure; [5]),"R.A. (relative activity), hypertensive action (blood pressure; Table 1, i.p. administration)",Q (quotient ED 50% antidepressive action/ED 20% hypertensive action) ([1]; hypertensive test i.p.),further results
"O=C(N=c1ccn(-c2ccccc2)nc1)Oc1ccccc1 [Example 30, 1,4-dihydro-4-(phenoxycarbonyl)-imino-1-phenylpyridazine hydrochloride]",,,,,,,,,"ED20 (blood pressure; Table 2, route not given): 0.034 mg/kg; R.A. (relative activity), hypertensive action (blood pressure; Table 2): 1.47; Q Increase [1]: 120.59; factor by which the hypertensive dose (ED 20%) is smaller than the antidepressive effective dose (ED 50%) ([1]; compounds of Table 2): 120; ED50 ([2]; Table 2, oral administration): 4.1 mg/kg; R.A. (relative activity), reserpine antagonism ([2]; Table 2): 0.18"
"CNC(=O)N=c1ccn(-c2ccccc2)nc1 [Example 31, 1,4-dihydro-4-(methylcarbamyl)-imino-1-phenylpyridazine]",1.47 mg/kg,0.03,0.19,0.28 mg/kg,2.62,,,,factor by which the quotient of antidepressive action and hypertensive action is smaller than in the case of amezinium [1]: 77
O=C(N=c1ccn(-c2ccccc2)nc1)OCc1ccccc1 [Example 34],0.1 mg/kg,0.50,7.10,0.71 mg/kg,1.03,,,,
C=CCOC(=O)N=c1ccn(-c2ccccc2)nc1 [Example 35],0.1 mg/kg,0.50,2.50,0.25 mg/kg,2.93,,,,
CCSC(=O)N=c1ccn(-c2ccccc2)nc1 [Example 36],0.316 mg/kg,0.16,6.33,2 mg/kg,0.37,,,,
CC(C)NC(=O)N=c1ccn(-c2ccccc2)nc1 [Example 37],1 mg/kg,0.05,0.70,0.7 mg/kg,1.05,,,,
"COc1cc(=NC(C)=O)cnn1-c1ccccc1 [Example 48, 4-acetylimino-1,4-dihydro-6-methoxy-1-phenylpyridazine perchlorate]",,,,1.1 mg/kg,0.67,6.81 mg/kg,0.05,0.16,
CCOc1cc(=NC(C)=O)cnn1-c1ccccc1 [Example 49],,,,1.71 mg/kg,0.43,4.64 mg/kg,0.08,0.37,
CCC(=O)N=c1cnn(-c2ccccc2)c(OC)c1 [Example 50],,,,0.18 mg/kg,4.07,3.16 mg/kg,0.12,0.06,
CCCC(=O)N=c1cnn(-c2ccccc2)c(OC)c1 [Example 52],,,,1.4 mg/kg,0.52,3.16 mg/kg,0.12,0.44,
"COc1cc(=NC(=O)Oc2ccccc2)cnn1-c1ccccc1 [Example 58, 1,4-dihydro-6-methoxy-4-(phenoxycarbonyl)-imino-1-phenylpyridazine]",,,,,,,,,"ED20 (blood pressure; Table 2, route not given): 0.1 mg/kg; R.A. (relative activity), hypertensive action (blood pressure; Table 2): 0.50; Q Increase [1]: 56.20; ED50 ([2]; Table 2, oral administration): 5.62 mg/kg; R.A. (relative activity), reserpine antagonism ([2]; Table 2): 0.13"
COc1cc(=NC(=O)c2ccccc2)cnn1-c1ccccc1 [Example 60],,,,0.93 mg/kg,0.79,2.15 mg/kg,0.17,0.43,
COc1cc(OC)cc(C(=O)N=c2cnn(-c3ccccc3)c(OC)c2)c1 [Example 62],0.56 mg/kg,0.09,1.18,0.66 mg/kg,1.11,,,,
COc1cc(=NC(=O)c2ccccc2Cl)cnn1-c1ccccc1 [Example 64],,,,1.27 mg/kg,0.58,> 10 mg/kg,< 0.04,< 0.13,
CCOc1cc(=NC(=O)c2ccccc2Cl)cnn1-c1ccccc1 [Example 65],,,,,,,,,"ED20 (blood pressure; Table 2, route not given): 0.53 mg/kg; R.A. (relative activity), hypertensive action (blood pressure; Table 2): 0.09; Q Increase [1]: > 59.62; ED50 ([2]; Table 2, oral administration): > 31.6 mg/kg; R.A. (relative activity), reserpine antagonism ([2]; Table 2): < 0.02"
COc1cc(=NC(=O)c2ccc(Cl)cc2)cnn1-c1ccccc1 [Example 66],,,,1.8 mg/kg,0.41,> 10 mg/kg,< 0.04,< 0.18,
COc1cc(=NC(=O)c2ccc(Cl)cc2Cl)cnn1-c1ccccc1 [Example 68],,,,0.95 mg/kg,0.77,> 21.5 mg/kg,< 0.02,< 0.04,
CCOC(=O)N=c1cnn(-c2ccccc2)c(OC)c1 [Example 69],2.15 mg/kg,0.02,2.26,4.86 mg/kg,0.15,,,,
CCCCOC(=O)N=c1cnn(-c2ccccc2)c(OC)c1 [Example 71],0.464 mg/kg,0.11,1.64,0.76 mg/kg,0.96,,,,
C=CCOC(=O)N=c1cnn(-c2ccccc2)c(OC)c1 [Example 72],0.464 mg/kg,0.11,3.17,1.47 mg/kg,0.50,,,,
CCSC(=O)N=c1cnn(-c2ccccc2)c(OC)c1 [Example 73],,,,1.23 mg/kg,0.60,> 10 mg/kg,< 0.04,< 0.12,
COc1cc(=NC(=O)NCc2ccccc2)cnn1-c1ccccc1 [Example 74],4.64 mg/kg,0.01,1.82,8.45 mg/kg,0.09,,,,
COc1cc(=NC(=O)c2cccc(C(F)(F)F)c2)cnn1-c1ccccc1 [Example 77],,,,3.4 mg/kg,0.22,3.16 mg/kg,0.12,1.08,
COc1cc(=NC(=O)c2ccc(C)cc2)cnn1-c1ccccc1 [Example 78],,,,0.73 mg/kg,1.00,10 mg/kg,0.04,0.07,
COc1cc(=NC(=O)c2ccc(F)cc2)cnn1-c1ccccc1 [Example 79],,,,1.14 mg/kg,0.64,10 mg/kg,0.04,0.11,
COc1cc(=NC(=O)c2ccc(Cl)c(Cl)c2)cnn1-c1ccccc1 [Example 80],,,,1.5 mg/kg,0.49,> 10 mg/kg,< 0.04,< 0.15,
"CCNC(=O)N=c1ccn(-c2ccccc2)nc1 [Example 84, 1,4-dihydro-4-(ethylcarbamyl)-imino-1-phenylpyridazine]",0.464 mg/kg,0.11,0.80,0.37 mg/kg,1.98,,,,
"CCCNC(=O)N=c1ccn(-c2ccccc2)nc1 [Example 85, 1,4-dihydro-1-phenyl-4-[(propylcarbamyl)-imino]-pyridazine]",1 mg/kg,0.05,0.28,0.28 mg/kg,2.62,,,,factor by which the quotient of antidepressive action and hypertensive action is smaller than in the case of amezinium [1]: 52
"CNC(=S)N=c1ccn(-c2ccccc2)nc1 [Example 86, 1,4-dihydro-4-(methylthiocarbamyl)-imino-1-phenylpyridazine]",> 1 mg/kg,< 0.05,< 2.1,2.1 mg/kg,0.35,,,,

# — patent publication US4820821A, “Novel pyridazinone-imines and their physiologically tolerated addition salts with acids, their preparation and therapeutic agents containing these compounds” (BASF Aktiengesellschaft, priority 1981, dated 1989)
